pIC50: −log10 of the molar value.
Tests used:
[1] = biological target: Apoptosis regulator Bcl-2 (Homo sapiens, UniProt P10415); assay: Inhibition of biotinylated Bim peptide binding to His-tagged Bcl-2 (unknown origin) preincubated for 1 hr followed by biotinylated Bim peptide addition measured after 2 hrs by ELISA
HeLa = assay: Cytotoxicity against human HeLa cells assessed as growth inhibition after 72 hrs by MTT assay; type: functional, cell-based
MDA-MB-231 = assay: Cytotoxicity against human MDA-MB-231 cells assessed as growth inhibition after 72 hrs by MTT assay; type: functional, cell-based; details: MDA-MB-231, 72 h
Jurkat = assay: Cytotoxicity against human Jurkat cells assessed as growth inhibition after 24 hrs by CellTiter Blue assay; type: functional, cell-based
KG-1a = assay: Cytotoxicity against human KG1a cells assessed as growth inhibition after 24 hrs by CellTiter Blue assay; type: functional, cell-based

Chain of Apoptosis regulator Bcl-2 (P10415 whole entry): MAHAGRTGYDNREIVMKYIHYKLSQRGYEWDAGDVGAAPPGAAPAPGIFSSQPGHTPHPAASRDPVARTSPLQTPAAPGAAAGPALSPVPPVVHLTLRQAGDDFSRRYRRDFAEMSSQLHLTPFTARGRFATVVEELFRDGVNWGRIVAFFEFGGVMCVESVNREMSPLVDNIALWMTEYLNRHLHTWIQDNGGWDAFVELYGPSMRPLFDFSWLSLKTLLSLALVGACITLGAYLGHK

Row | SMILES | pIC50 [1] | pIC50 (HeLa) | pIC50 (MDA-MB-231) | pIC50 (Jurkat) | pIC50 (KG-1a)
1 | O=[N+]([O-])c1cccc(Nc2nnc(-c3c[nH]c4ccccc34)o2)c1 |  | 4.82 | 4.46 | < 4.00 | 4.59
2 | c1ccc(CNc2nnc(-c3c[nH]c4ccccc34)o2)cc1 |  | 5.11 | 5.19 | < 4.00 | < 4.00
3 | Clc1ccc(Nc2nnc(-c3c[nH]c4ccccc34)o2)cc1 |  | 5.42 | 5.01 | 4.52 | 5.50
4 | Fc1ccc(Nc2nnc(-c3c[nH]c4ccccc34)o2)cc1 |  | < 4.00 | < 4.00 | < 4.00 | 4.68
5 | Clc1ccc(Nc2nnc(-c3c[nH]c4ccccc34)o2)cc1Cl |  | 4.71 | 4.51 | < 4.00 | 4.34

The next lines start with results.

Row | pIC50 [1] | SMILES | pIC50 (HeLa) | pIC50 (MDA-MB-231) | pIC50 (Jurkat) | pIC50 (KG-1a)
6 | 4.68 | Cc1ccc(Nc2nnc(-c3c[nH]c4ccccc34)o2)cc1 | 4.80 | 4.56 | < 4.00 | 5.40
7 | 5.42 | O=[N+]([O-])c1ccc(Nc2nnc(-c3c[nH]c4ccccc34)o2)cc1 | 5.75 | 5.45 | 4.35 | 6.05
8 | 6.18 | Clc1cccc(Nc2nnc(-c3c[nH]c4ccccc34)o2)c1 | 5.25 | 5.05 | < 4.00 | 4.49
9 | 4.54 | COc1ccc(Nc2nnc(-c3c[nH]c4ccccc34)o2)cc1 | 5.24 | 5.00 | < 4.00 | 6.09
10 | 5.91 | O=[N+]([O-])c1ccccc1Nc1nnc(-c2c[nH]c3ccccc23)o1 | 6.52 | 6.05 | 4.52 | 6.07
